The source made the active and inactive calls.
Assays:
[1] = molecular target: T1, Replicative DNA helicase DnaB (Mycobacterium tuberculosis, UniProt P9WMR3); assay: DnaB intein splicing inhibitors, dose response, biochemical, cell-free fluorescence (AID 449749); assay type: functional
T1 sequence (P9WMR3 whole entry): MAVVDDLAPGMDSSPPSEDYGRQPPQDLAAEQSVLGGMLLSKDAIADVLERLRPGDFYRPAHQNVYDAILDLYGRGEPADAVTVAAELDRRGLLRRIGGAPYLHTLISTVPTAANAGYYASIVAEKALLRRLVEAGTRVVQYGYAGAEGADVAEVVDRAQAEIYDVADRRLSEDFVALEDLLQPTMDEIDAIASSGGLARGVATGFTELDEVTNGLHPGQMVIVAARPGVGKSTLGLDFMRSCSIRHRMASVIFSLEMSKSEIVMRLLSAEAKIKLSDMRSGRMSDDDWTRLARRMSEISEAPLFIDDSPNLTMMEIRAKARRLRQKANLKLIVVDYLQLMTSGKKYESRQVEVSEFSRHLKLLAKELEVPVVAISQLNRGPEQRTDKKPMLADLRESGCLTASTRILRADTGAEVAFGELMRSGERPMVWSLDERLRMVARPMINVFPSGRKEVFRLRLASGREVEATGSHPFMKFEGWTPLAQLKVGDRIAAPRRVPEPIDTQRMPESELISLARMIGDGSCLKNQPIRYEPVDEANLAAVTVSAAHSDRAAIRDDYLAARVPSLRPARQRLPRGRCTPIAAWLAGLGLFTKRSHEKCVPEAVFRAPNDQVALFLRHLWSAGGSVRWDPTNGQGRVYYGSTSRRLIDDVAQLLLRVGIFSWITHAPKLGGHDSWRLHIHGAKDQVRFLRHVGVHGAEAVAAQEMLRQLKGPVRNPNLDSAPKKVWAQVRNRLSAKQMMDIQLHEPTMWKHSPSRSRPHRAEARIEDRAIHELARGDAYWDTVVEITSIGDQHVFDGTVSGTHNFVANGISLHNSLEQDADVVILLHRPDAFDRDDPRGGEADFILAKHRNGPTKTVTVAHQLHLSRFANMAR

[2] = molecular target: T2, Protein RecA (Mycobacterium tuberculosis, UniProt P9WHJ3); assay: Fluorescence Cell-Free Homogeneous Dose Retest to Identify Inhibitors of RecA-Intein Splicing Activity. [Related pubchem assays (depositor defined):AID2097, AID2223, AID489010, AID492950]; assay type: functional
T2 sequence (P9WHJ3 whole entry): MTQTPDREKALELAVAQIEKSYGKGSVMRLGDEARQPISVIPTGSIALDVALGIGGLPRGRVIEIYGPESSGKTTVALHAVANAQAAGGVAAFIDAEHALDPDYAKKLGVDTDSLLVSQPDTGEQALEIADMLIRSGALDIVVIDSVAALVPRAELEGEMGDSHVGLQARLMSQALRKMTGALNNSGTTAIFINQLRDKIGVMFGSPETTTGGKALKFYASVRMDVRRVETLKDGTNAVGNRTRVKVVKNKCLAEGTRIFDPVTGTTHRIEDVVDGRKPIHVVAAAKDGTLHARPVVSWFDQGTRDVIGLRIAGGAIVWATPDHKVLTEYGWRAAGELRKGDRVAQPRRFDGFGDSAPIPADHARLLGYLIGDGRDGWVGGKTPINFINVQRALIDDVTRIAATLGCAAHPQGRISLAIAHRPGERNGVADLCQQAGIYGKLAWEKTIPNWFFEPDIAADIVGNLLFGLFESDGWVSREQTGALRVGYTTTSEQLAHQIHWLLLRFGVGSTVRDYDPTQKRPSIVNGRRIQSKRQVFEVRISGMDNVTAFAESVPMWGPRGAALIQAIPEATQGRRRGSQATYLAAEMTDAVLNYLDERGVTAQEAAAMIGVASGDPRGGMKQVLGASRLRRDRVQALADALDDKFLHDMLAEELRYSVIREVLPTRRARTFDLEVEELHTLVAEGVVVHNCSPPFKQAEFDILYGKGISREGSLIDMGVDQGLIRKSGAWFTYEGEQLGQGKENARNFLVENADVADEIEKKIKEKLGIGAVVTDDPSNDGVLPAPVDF

[3] = molecular target: T3, Rac GTPase-activating protein 1 (Homo sapiens, UniProt Q9H0H5); assay: MgcRacGAP GTPase-activating activity inhibitors, confirmation, biochemical, ADP Hunter fluorescence, primary and confirmatory (AID 624330); assay type: functional
T3 sequence (Q9H0H5 whole entry): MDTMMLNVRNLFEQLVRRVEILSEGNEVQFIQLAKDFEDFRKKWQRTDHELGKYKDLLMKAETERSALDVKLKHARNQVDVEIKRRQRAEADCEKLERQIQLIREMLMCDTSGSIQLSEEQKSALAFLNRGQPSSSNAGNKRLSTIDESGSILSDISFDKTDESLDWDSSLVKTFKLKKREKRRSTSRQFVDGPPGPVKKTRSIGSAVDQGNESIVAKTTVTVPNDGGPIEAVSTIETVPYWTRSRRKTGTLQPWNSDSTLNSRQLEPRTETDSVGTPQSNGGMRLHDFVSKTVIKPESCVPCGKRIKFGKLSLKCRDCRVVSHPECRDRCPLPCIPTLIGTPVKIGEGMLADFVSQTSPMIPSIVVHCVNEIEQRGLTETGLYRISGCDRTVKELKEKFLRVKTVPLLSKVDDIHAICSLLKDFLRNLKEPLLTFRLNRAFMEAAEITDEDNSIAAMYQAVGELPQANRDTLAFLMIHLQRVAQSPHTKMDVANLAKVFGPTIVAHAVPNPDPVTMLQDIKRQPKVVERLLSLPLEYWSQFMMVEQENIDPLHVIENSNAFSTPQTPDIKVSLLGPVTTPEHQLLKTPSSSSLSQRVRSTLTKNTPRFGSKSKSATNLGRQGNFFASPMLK

[4] = molecular target: FAD-linked sulfhydryl oxidase ALR (Homo sapiens, UniProt P55789); assay: inhibitors of human ALR sulfhydryl oxidase, dose response, biochemical, H2O2 detection, luminescence, cherry-pick (AID 493248)
Sequence of FAD-linked sulfhydryl oxidase ALR (P55789 whole entry): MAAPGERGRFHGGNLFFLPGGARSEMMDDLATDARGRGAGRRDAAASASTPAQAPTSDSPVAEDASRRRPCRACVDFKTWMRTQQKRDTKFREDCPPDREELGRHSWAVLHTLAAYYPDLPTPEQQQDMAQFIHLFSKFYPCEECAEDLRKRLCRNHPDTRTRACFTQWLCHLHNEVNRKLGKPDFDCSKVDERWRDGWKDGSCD

[5] = Luminescence Cell-Based Dose Retest to Confirm Inhibitors of Cancer Stem Cells. [Related pubchem assays (depositor defined):AID2717, AID2721]; assay type: functional; conditions: Homo sapiens
[6] = system: INS1; assay: beta cell apoptosis inhibitors, cytokine rescue, dose response, luminescence, retest (AID 449756); assay type: functional, cell-based; conditions: Rattus norvegicus;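 also: cell death triggered by IL-1 beta plus TNF-alpha plus IFN-gamma mixture; protective hits raise ATP signal compared with cytokine alone wells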
[7] = system: BJ; assay: cytotoxicity toward BJ-TERT fibroblasts, dose response, cell-based, RAS-independent, luminescence (AID 1933); assay type: functional; conditions: Homo sapiens
[8] = system: BJ; assay: cells; assay type: functional, cell-based; conditions: Homo sapiens
[9] = system: BJ; assay: cytotoxicity toward BJ-TERT-LT-ST fibroblasts, dose response, cell-based, RAS-independent, luminescence (AID 1935); assay type: functional; conditions: Homo sapiens;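 also: BJ fibroblasts immortalized with TERT plus LT and ST oncogenes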
[10] = cytotoxicity toward DRD oncogenic fibroblasts, dose response, cell-based, non-viral oncogenic, luminescence (AID 1934); assay type: functional; conditions: Homo sapiens
[11] = HEp-2 cell cytotoxicity, dose response, cytotoxicity control for RSV inhibitor project, HTS (AID 2410); assay type: functional; conditions: human respiratory syncytial virus
[12] = molecular target: T4, Corticotropin-releasing factor receptor 2/Corticotropin-releasing factor-binding protein (Homo sapiens, UniProt P24387+Q13324); assay: Dose Response confirmation of uHTS hits for small molecule antagonists of the CRF-binding protein and CRF-R2 receptor complex.; assay type: functional; conditions: read-out: IC50_Mean
T4 sequence (Q13324 whole entry): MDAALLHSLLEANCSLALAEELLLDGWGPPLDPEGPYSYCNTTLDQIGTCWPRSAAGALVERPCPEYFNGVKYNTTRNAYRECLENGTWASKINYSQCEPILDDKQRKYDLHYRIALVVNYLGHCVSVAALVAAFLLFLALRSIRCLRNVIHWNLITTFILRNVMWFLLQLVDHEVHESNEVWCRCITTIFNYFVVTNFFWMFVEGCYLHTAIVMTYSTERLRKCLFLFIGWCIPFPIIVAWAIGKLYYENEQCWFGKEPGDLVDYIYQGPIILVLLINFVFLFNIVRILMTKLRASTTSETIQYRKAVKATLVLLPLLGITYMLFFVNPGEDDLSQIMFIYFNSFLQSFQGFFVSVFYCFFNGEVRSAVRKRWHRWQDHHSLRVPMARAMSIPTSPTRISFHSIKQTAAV
T4 sequence (P24387 whole entry): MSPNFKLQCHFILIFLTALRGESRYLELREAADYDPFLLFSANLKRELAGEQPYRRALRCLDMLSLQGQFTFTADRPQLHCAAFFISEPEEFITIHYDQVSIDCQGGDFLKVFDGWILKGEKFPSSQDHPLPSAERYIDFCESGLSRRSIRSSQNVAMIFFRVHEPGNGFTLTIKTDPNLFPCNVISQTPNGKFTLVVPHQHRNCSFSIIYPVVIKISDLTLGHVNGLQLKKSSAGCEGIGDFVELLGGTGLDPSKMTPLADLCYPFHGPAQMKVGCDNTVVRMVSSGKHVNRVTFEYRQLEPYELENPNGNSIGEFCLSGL

[13] = molecular target: T4, Corticotropin-releasing factor receptor 2/Corticotropin-releasing factor-binding protein; assay: activators of CRF receptor 2 with binding protein – uHTS hits, confirmation (AID 602473); assay type: functional; conditions: read-out: EC50_Mean
[14] = molecular target: T5, RNA-binding protein pos-1 (Caenorhabditis elegans, UniProt G5EF15); assay: inhibitors of POS-1/mex-3 RNA binding, dose response, biochemical, fluorescence polarization (AID 1964);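 also: purified POS-1 fused to maltose binding protein made in E. coli; potency of compounds blocking POS-1 binding to fluorescent RNA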
T5 sequence (G5EF15 whole entry): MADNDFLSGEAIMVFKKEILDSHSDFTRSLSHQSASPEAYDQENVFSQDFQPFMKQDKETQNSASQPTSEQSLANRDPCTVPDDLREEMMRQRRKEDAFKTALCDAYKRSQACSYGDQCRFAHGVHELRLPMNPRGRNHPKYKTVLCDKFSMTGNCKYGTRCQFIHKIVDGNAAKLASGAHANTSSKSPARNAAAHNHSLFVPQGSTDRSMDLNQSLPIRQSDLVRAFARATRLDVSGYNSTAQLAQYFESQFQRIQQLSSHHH

[15] = molecular target: T6, Zinc finger protein mex-5 (Caenorhabditis elegans, UniProt Q9XUB2); assay: MEX-5/TCR-2 RNA interaction inhibitors, dose response, biochemical, C. elegans, fluorescence polarization (AID 1960)
T6 sequence (Q9XUB2 whole entry): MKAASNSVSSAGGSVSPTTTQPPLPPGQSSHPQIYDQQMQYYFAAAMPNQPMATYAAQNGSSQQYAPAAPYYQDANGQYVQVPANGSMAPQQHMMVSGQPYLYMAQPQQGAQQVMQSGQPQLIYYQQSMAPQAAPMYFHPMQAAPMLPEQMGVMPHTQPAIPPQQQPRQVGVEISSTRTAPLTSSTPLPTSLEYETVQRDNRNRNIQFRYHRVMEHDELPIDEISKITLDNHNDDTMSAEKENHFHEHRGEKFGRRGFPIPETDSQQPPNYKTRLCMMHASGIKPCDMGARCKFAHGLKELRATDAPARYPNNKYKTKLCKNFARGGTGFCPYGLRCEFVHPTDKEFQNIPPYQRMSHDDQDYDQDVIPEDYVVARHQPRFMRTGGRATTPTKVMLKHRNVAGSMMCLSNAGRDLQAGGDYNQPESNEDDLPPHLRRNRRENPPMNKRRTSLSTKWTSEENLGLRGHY

[16] = molecular target: Large T antigen (Simian virus 40, UniProt P03070); assay type: functional, Betapolyomavirus macacae;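 also: Confirmatory-stage PubChem screen for compounds that inhibit SV40 T antigen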
Sequence of Large T antigen (P03070 whole entry): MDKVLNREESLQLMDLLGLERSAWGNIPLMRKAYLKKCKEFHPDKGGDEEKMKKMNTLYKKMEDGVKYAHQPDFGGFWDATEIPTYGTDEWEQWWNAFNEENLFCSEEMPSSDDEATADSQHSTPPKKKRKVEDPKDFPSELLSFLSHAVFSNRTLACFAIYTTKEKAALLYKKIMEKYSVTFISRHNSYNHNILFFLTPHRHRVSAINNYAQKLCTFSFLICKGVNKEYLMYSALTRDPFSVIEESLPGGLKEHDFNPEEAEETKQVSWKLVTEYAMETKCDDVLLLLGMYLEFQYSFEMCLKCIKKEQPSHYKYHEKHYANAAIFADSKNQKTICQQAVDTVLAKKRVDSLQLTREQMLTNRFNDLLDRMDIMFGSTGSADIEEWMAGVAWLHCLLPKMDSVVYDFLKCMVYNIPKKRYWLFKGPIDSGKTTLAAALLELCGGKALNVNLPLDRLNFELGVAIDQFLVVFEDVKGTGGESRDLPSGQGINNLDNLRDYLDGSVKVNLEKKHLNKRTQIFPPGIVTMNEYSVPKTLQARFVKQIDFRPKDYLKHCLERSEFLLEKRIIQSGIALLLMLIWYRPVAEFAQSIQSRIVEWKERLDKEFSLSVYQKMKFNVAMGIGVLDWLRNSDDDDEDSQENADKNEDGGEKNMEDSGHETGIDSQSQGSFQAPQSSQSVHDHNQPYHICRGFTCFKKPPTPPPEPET

N#Cc1c(N)n(CCOC(=O)c2ccc(Cl)cc2)c2nc3ccccc3nc12
AC50 [1]: 3.18 µM (active)
EC50 [2]: 1.8 µM (active)

C=CCn1c(SCC(=O)Nc2ccc(N(C)C)cc2)nnc1-c1cccc(C)c1
IC50 [3]: 42.8 µM (active)

COc1ccc(-c2cc(-c3nnc(S)n3-c3ccccc3OC)[nH]n2)cc1
AC50 [4]: 41.1 µM (active)

O=C(C#Cc1ccccc1)Nc1cccc(F)c1
AC50 [5]: 2.35 µM (active)
AC50 [4]: 2 µM (active)
AC50 [6]: 8.05 µM (active)

O=C(c1[nH]nc2c1CCC2)N1CCCC(Nc2cccc(F)c2)C1 (stereo not given)
AC50 [4]: 19.5 µM (active)

CSc1ccc(CN2CCC(N3CC(C)OC(C)C3)CC2)cc1 (stereo not given)
IC50 [3]: 72.4 µM (active)

COc1cc(N=Nc2c(C)n(C)n(-c3ccccc3)c2=O)ccc1N
IC50 [3]: 43.4 µM (active)

COC(=O)N1CCc2c(sc(NC(=O)C3=COCCO3)c2C#N)C1
EC50 [7]: 8.87 µM (inconclusive)
EC50 [8]: 48.9 µM (active)
EC50 [9]: 16.1 µM (active)
EC50 [10]: 12.5 µM (active)

COc1cccc(-c2ncc3ccccn23)c1
CC50 [11]: 44.1 µM (active)
IC50 [3]: 136 µM (active)

COCc1n[nH]c2c1C(c1ccccc1OC)C(C#N)=C(N)O2 (stereo not given)
AC50 [1]: 22 µM (active)
EC50 [2]: 4.77 µM (active)

NS(=O)(=O)c1ccc(CCNC(=O)CN2CCN(c3ccccc3O)CC2)cc1
AC50 [4]: 3.94 µM (active)

COc1cc(-c2nc3cnccn3c2NC(C)(C)CC(C)(C)C)ccc1O
AC50 [4]: 4.22 µM (active)

CN1CC(=O)N(CC(=O)N2CCC(Cc3ccccc3)CC2)C1=O
IC50 [12]: > 47.1 µM (inactive)
EC50 [13]: > 53 µM (inactive)

CCOc1cc(C2C(C#N)=C(N)Oc3[nH]nc(CC)c32)ccc1OCCN1CCOCC1 (stereo not given)
AC50 [1]: 27.2 µM (active)
EC50 [2]: 7.2 µM (active)

COC(=O)c1ccc(CSc2nc3ccccc3c(=O)n2Cc2ccco2)o1
AC50 [4]: 4.51 µM (active)

Cc1cc(-c2cc(C)c(N)cc2C)c(C)cc1N
IC50 [3]: 101 µM (active)

COc1ccc(NC2CCCN(C(=O)CCc3cccc(F)c3)C2)cc1 (stereo not given)
IC50 [3]: 74.6 µM (active)

Cc1cc(-c2nnc(S)n2/N=C/c2ccc(Cl)c([N+](=O)[O-])c2)[nH]n1
AC50 [4]: 3.45 µM (active)

COc1cc(/C=N/Nc2nc(O)nnc2C)ccc1O
EC50 [14]: 56.8 µM (active)
EC50 [15]: 31.1 µM (active)
IC50 [16]: 6.41 µM (active)
AC50 [4]: 4.13 µM (active)

COc1ccc(S(=O)(=O)Nc2nc3ccccc3nc2NCc2ccc3c(c2)OCO3)cc1
IC50 [12]: > 47.1 µM (inactive)
EC50 [13]: > 53 µM (inactive)

COc1ccc(NC(=O)NS(=O)(=O)c2ccc(C)cc2)cc1OC
IC50 [3]: 36 µM (active)

Reference: ChEMBL document CHEMBL1201862, “PubChem BioAssay data set” (2004)
